Measured values taken from article PMC10567917 (Archives of Toxicology, 2023).
Several values for one entry are separate records, joined by “and”; a condition that tells them apart may be missing. Equal entries are not always repeated.

Assays:
[1] = test system: primary mouse hepatocytes
[2] = test system: primary human hepatocytes; type: in vitro ADME
[3] = test system: primary human hepatocytes
[4] = test system: primary rat hepatocytes
[5] = test system: intracellular proteins of primary human hepatocytes
[6] = test system: rainbow trout; conditions: in vivo; cited from earlier work

## COc1cc2c(c3oc(=O)c4c(c13)CCC4=O)[C@@H]1C=CO[C@@H]1O2 [AFB1, Aflatoxin B1]
[1]
  AFB1 in culture medium: no longer detectable
  AFB1 remaining in culture medium: 0.2 µM
  time up to which AFB1 was detectable in culture medium: up to 6 h
[2]
  estimated intracellular concentration of AFB1: 1 mM
[3]
  AFB1 remaining in culture medium: 8.54 µM
  concentration in culture medium: 636 nM
[4]
  AFB1 remaining in culture medium: 3.48 µM

## COc1cc2c(c3oc(=O)c4c(c13)CCC4=O)[C@H]1[C@@H](O2)OC(SCC(NC(=O)CCC(N)C(=O)O)C(=O)NCC(=O)O)[C@@H]1O (stereo partly shown) [AFB1-GSH, AFB1-glutathione]
[2]
  intracellular detection: not detected
[3]
  detection in culture medium: not detected
[4]
  concentration in culture medium: 72 nM
  concentration in culture medium (plateau): 415 nM

## COc1cc(O)c(C2=CC(=O)N(CCCC[C@H](N)C(=O)O)C2)c2oc(=O)c3c(c12)CCC3=O [AFB1-Lys, AFB1-lysine]
[5]
  AFB1-Lys in proteins of cell lysate: around 1.0 pmol
[4]
  detection in culture medium: detected only in trace amounts

## COc1cc2c(c3oc(=O)c4c(c13)CCC4=O)[C@H]1[C@@H](O2)OC(SCC(NC(C)=O)C(=O)O)[C@@H]1O (stereo partly shown) [AFB1-NAC, AFB1-N-acetylcysteine]
[3]
  detection in culture medium: not detected

## COc1cc2c(c3oc(=O)c4c(c13)CCC4=O)C1(O)C=COC1O2 (stereo not shown) [AFM1, aflatoxin M1]
[1]
  maximum concentration in culture medium: 353 nM
[3]
  concentration in culture medium: 33 nM and 46 nM

## O=C1CCc2c1c(=O)oc1c3c(cc(O)c21)O[C@H]1OC=C[C@@H]31 [AFP1, aflatoxin P1]
[1]
  maximum concentration in culture medium: 896 nM
[3]
  detection in culture medium: just formed in trace amounts
[4]
  detection in culture medium: detected only in trace amounts

## O=C1CCc2c1c(=O)oc1c3c(cc(O[C@@H]4O[C@H](C(=O)O)[C@@H](O)[C@H](O)[C@H]4O)c21)O[C@H]1OC=C[C@@H]31 [AFP1-Glc, AFP1 glucuronide]
[1]
  AFP1-Glc level in mouse samples relative to rat samples: about 100 fold
[3]
  detection of AFP1-Glc: no AFP1-Glc was detectable

## COc1cc2c(c3oc(=O)c4c(c13)[C@@H](O)CC4=O)[C@@H]1C=CO[C@@H]1O2 [AFQ1, aflatoxin Q1]
[1]
  maximum concentration in culture medium: 25 nM
[6]
  carcinogenic potency relative to AFB1: about 1%
[4]
  Formation rate: 87 pmol/h and 74 700 pmol/h
  concentration in culture medium: 112 nM
